Reference: US6407311B1, “Methods for production of hybrid wheat” (Yeda Research & Development Co., Ltd., priority 1997, dated 2002)

Columns and labels:
[1] = system: plants of common wheat homozygous for the herbicide susceptibility allele su-B1; assay: Spraying chlorotoluron on common wheat homozygous for su-B1; assay type: in vivo; conditions: sprayed at double the rate recommended at commercial fields
Source text: To test the effect of chlorotoluron on the various genotypes we sprayed this herbicide at a rate which is double of the recommended at commercial fields on plants of common wheat homozygous for the herbicide susceptibility allele su-B1 and the line of Ae. searsii carrying the chlorotoluron resistance allele Su-S^s1. All plants carrying the recessive su-B1 allele died within 10-14 days from spraying while those carrying the dominant Su-S^s1 allele survived.

[2] = system: line of Ae. searsii carrying the chlorotoluron resistance allele Su-S^s1; assay: Spraying chlorotoluron on the Ae. searsii line carrying Su-S^s1; assay type: in vivo, Aegilops searsii; conditions: sprayed at double the rate recommended at commercial fields
Source text: Different cultivars of common wheat show different reaction to the herbicide chlorotoluron and to other phenyl derivatives of urea; several cultivars carrying the dominant allele Su-B1 (e.g., Cappelle Desprez) are resistant while others carrying the recessive allele su-B1 (e.g., Chinese Spring) are susceptible (Snape et al, 1991). The gene is located on the long arm of chromosome 6B (6BL) about 0.5 cM from the centromere. […] Since chromosome 6S^sL of Ae. searsii pairs almost regularly with 6S^lL of Ae. longissima, it is possible to transfer the resistance allele to the 6S^lL arm of the engineered chromosome EC-H (FIGS. 8a,b), thus producing the engineered chromosome of the EC-HR type. […] The presence of the chlorotoluron resistance allele on the engineered chromosome facilitates the selective killing, in each generation, of the male-sterile plants that lack the engineered chromosome while unaffecting the male-fertile maintainer plants (with the engineered chromosome) in the progeny of the selfed maintainer. This will assure, that in each generation, only the male-fertile offspring of the selfed maintainer, will grow. […]

[3] = system: lines of diploid Aegilops species; assay: Reaction of lines of diploid Aegilops species to chlorotoluron; assay type: in vivo; conditions: most lines
Source text: Different cultivars of common wheat show different reaction to the herbicide chlorotoluron and to other phenyl derivatives of urea; several cultivars carrying the dominant allele Su-B1 (e.g., Cappelle Desprez) are resistant while others carrying the recessive allele su-B1 (e.g., Chinese Spring) are susceptible (Snape et al, 1991). The gene is located on the long arm of chromosome 6B (6BL) about 0.5 cM from the centromere. […] Since chromosome 6S^sL of Ae. searsii pairs almost regularly with 6S^lL of Ae. longissima, it is possible to transfer the resistance allele to the 6S^lL arm of the engineered chromosome EC-H (FIGS. 8a,b), thus producing the engineered chromosome of the EC-HR type. […] The presence of the chlorotoluron resistance allele on the engineered chromosome facilitates the selective killing, in each generation, of the male-sterile plants that lack the engineered chromosome while unaffecting the male-fertile maintainer plants (with the engineered chromosome) in the progeny of the selfed maintainer. This will assure, that in each generation, only the male-fertile offspring of the selfed maintainer, will grow.

[4] = system: plants with 2n=42 (lacking the EC-HR1); assay: Chlorotoluron on selfed progeny of EC-HR1 monosomic addition plants, 2n=42; assay type: in vivo, common wheat
Source text: (§1) To construct the engineered chromosome EC-HR1, the dominant chlorotoluron resistance allele Su-S^s1 is transferred from chromosome arm 6S^sL of a selected line of Ae. searsii into the 6S^lL arm of the engineered chromosome EC-H1. This is achieved by crossing a […] female parent derived from the male-fertile maintainer line in the common wheat cultivar Chinese Spring. This female parent is homozygous for the ms-B1, su-B1 and Ki-B1 alleles and has, as a monosomic addition, the engineered chromosome EC-H1 (4S^sS/6S^lL) carrying on its short arm the Ms-S^s1 and rht-S^s1 alleles and on its long arm the su-S1ki-S^l1-a alleles, with a line of the diploid species Ae. searsii carrying the chlorotoluron resistance allele on the long arm of chromosome 6S^s, i.e., on 6S^sL, as well as the Ms-S^s1 and rht-S^s1 alleles on 4S^sS. About 20% of the F1 progeny have the engineered chromosome EC-H1 and therefore contain 2n=29 chromosomes and can be distinguished from the other F1 plants having 2n=28. […] Pollinating the 2n=29 F1 plants once or twice with Chinese Spring, homozygous for su-B1 yields plants with 2n=43 (21″+1′) containing the desired engineered chromosome EC-HR1 as a monosomic addition.

[5] = system: plants with 2n=43 carrying the EC-HR1; assay: Chlorotoluron on selfed progeny of EC-HR1 monosomic addition plants, 2n=43; assay type: in vivo, common wheat
Source text: as §1

[6] = system: cultivars carrying the dominant allele Su-B1 (e.g., Cappelle Desprez); conditions: Snape et al, 1991; cited from earlier work
[7] = system: cultivars carrying the recessive allele su-B1 (e.g., Chinese Spring); conditions: Snape et al, 1991; cited from earlier work

With `Cc1ccc(NC(=O)N(C)C)cc1Cl` [chlorotoluron, 3-(3-chloro-p-tolyl)-1,1-dimethylurea] the “outcome of plants after spraying” value [1] was “died”, the “time to death from spraying” value [1] was 10 to 14 days and the “outcome of plants after spraying” value [2] was “survived”. The “reaction to the herbicide” value [3] was “susceptible”, the “effect on plants lacking the resistance allele” value [4] was “kills all plants” and the “effect on plants carrying EC-HR1” value [5] was “unaffected”. The “reaction to the herbicide” value [6] was “resistant” and the “reaction to the herbicide” value [7] was “susceptible”.
